Results from article PMC11627468, “Novel enzyme‐resistant pancreatic polypeptide analogs evoke pancreatic beta‐cell rest, enhance islet cell turnover, and inhibit food intake in mice” (Biofactors (Oxford, England), 2024).

Assays:
BRIN‐BD11 beta‐cells [1] = assay: In vitro insulin secretion from BRIN‐BD11 beta‐cells; type: cell-based; conditions: 20 min, insulin radioimmunoassay, n = 8
Experimental: Effects of the PP and related peptides on insulin secretion were examined in pancreatic BRIN‐BD11 beta‐cells. The secretory characteristics of this cell line have been described in detail previously.[22] Cells were cultured in RPMI 1640 media (Gibco Life Technologies Ltd), with a glucose concentration of 11.1 mM and supplemented with 10% v/v fetal bovine serum (Gibco), 1% v/v antibiotics (0.1 mg/mL streptomycin and 100 U/mL penicillin) at 37°C in 5% atmospheric CO2. For experimentation, cells were seeded into 24‐well plates (Falcon Ltd) at a density of 150,000 cells per well. Following overnight attachment, media was aspirated, and cells were preincubated in 1.1 mM glucose KRB buffer for 40 min. Following preincubation, the 1.1 mM glucose solution was removed and 1 mL of KRB test solution, containing 16.7 mM glucose with PP peptides (10^−12 to 10^−6 M) was added for 20 min. In a separate series, PP peptides were also incubated in the presence of alanine (10 mM) at 16.7 mM glucose to further investigate the effects on insulin secretion. For all experiments, following a 20 min incubation period, the supernatant was collected and stored at −20°C until insulin concentration determination using a dextran‐coated charcoal insulin radioimmunoassay.[23]

BRIN‐BD11 beta‐cells [2] = assay: Beta‐cell proliferation (Ki‐67 staining); type: cell-based; conditions: peptide 10^−6 M, versus control cultures, n = 3
Experimental: (§1) To assess the effects of PP and related peptides (10^−8 and 10^−6 M) on beta‐cell proliferation and apoptosis, BRIN‐BD11 beta‐cells were seeded onto sterilized, clear‐glass coverslips (16 mm diameter) and placed in 12‐well plates (Falcon Ltd) at a density of 40,000 cells per well and cultured for 18 h. Media control (11.1 mM glucose), GLP‐1 (10^−8 and 10^−6 M), and a cytokine cocktail mix (IL‐1β [100 U/mL], IFNγ [20 U/mL], TNFα [200 U/mL], Sigma Aldrich, UK) were employed as controls, as appropriate. Cells were then rinsed with PBS and fixed using 4% paraformaldehyde. After antigen retrieval with sodium citrate buffer at 95°C for 20 min, blocking was performed using 2% bovine serum albumin (BSA) for 45 min. For proliferation studies, the slips were then incubated at 37°C with rabbit anti‐Ki‐67 primary antibody (Abcam, ab15580), and subsequently with Alexa Fluor® 488 secondary antibody. Coverslips were mounted onto polylysine‐coated microscope slides using a 50:50 glycerol:PBS solution and stored at 4°C until required for analysis. To assess the ability of PP peptides to protect against cytokine‐induced apoptosis, cells were seeded, washed, and fixed as above, with the exception that the media was supplemented with the cytokine mix. The slips were then incubated at 37°C with TUNEL reaction mix for 60 min (Roche Diagnostics, Germany), and mounted onto microscope slides. To assess receptor specificity, co‐incubation of PP peptides with the well characterized NPY4R antagonist, (S)‐VU0637120,[24] at 10^−5 M was employed for beta‐cell proliferation experiments, conducted as detailed above. All slides were viewed using a fluorescent microscope (Olympus System Microscope, model BX51; Southend‐on‐Sea, UK) and photographed by DP70 camera adapter system. Proliferation/TUNEL positive frequency was determined using the cell‐counter function on ImageJ Software and expressed as % of total cells analyzed.

C57BL/6 mice = assay: Glucose tolerance in mice; type: in vivo; conditions: peptide 25 nmol/kg i.p. conjointly with glucose 18 mmol/kg, overnight fasted mice; n = 6
Experimental: Acute in vivo studies were conducted in groups (n = 6) of 4‐month‐old male C57BL/6 mice (Envigo, Huntington, UK). All mice were maintained on standard rodent chow (10% fat, 30% protein, and 60% carbohydrate; Trouw Nutrition, Northwich, UK), and drinking water provided ad libitum. Mice were housed individually and kept in a temperature‐controlled environment (22 ± 2°C), with a 12‐h light/dark cycle. Experiments were carried out in accordance with the UK Animal Scientific Procedures Act 1986 as well as being approved by Ulster University Animal Ethics Review Committee (AWERB) committee and protected by the UK Home Office Animal project license number PPL2902, approved on April 26, 2021. Acute effects of test peptides on food intake were tested in overnight (16 h) fasted mice. Briefly, fasted mice were administered an intraperitoneal (i.p.) injection of saline vehicle (0.9% (w/v) NaCl) alone or in combination with test peptides (each at 25, 75, or 200 nmol/kg bw) and cumulative food intake measured at regular intervals, to assess the pharmacodynamic profile of the test peptides. For food intake studies, mice were provided with preweighed rodent maintenance diet in their food hopper at t = 0 min, which was then re‐weighed at each timepoint with all due care taken to account for any wastage or crumbling of the food pellets. In this regard, the investigator was present at all times during the 180‐min test period to ensure accuracy and consistency in all measurements. Furthermore, effects of PP or related peptides (25 nmol/kg bw) on glucose homeostasis and insulin secretion were evaluated in overnight fasted mice following i.p. injection of glucose alone (18 mmol/kg bw) or in combination with PP peptides (each at 25 nmol/kg bw). […] Blood glucose was measured immediately using a hand‐held Ascencia Contour blood glucose meter (Bayer Healthcare, Newbury, Berkshire, UK). […]

[3] = in vivo; cited from earlier work
Experimental: Despite these prominent therapeutically exploitable advantages, clinical utilization of native PP as a positive NPY4R modulator is limited by a short circulatory half‐life of less than 7 min.[17] This appears to be due to rapid cleavage of the N‐terminal dipeptide, Ala^1‐Pro^2, from PP by the ubiquitous enzyme dipeptidyl peptidase‐4 (DPP‐4).[18] […] As such, DPP‐4 resistant PP mole ...

NPY4R = target: T1, NPY4R (Rattus norvegicus, UniProt Q63447); assay: Receptor specificity: beta‐cell proliferation with NPY4R antagonist (S)‐VU0637120; type: cell-based; conditions: peptide 10^−6 M co‐incubated with NPY4R antagonist (S)‐VU0637120 10^−5 M; Ki‐67; n = 3
T1 construct: endogenous in cells; host or cells: BRIN-BD11 beta cells
Experimental: as §1, with “The slips were then incubated at 37°C with TUNEL reaction mix for 60 min (Roche Diagnostics, Germany), and mounted onto microscope slides. To assess receptor specificity, co‐incubation of PP peptides with the well characterized NPY4R antagonist, (S)‐VU0637120,[24] at 10^−5 M was employed for beta‐cell proliferation experiments, conducted as detailed above. All slides were viewed using a fluorescent microscope (Olympus System Microscope, model BX51; Southend‐on‐Sea, UK) and photographed by DP70 camera adapter system.” left out

T1 sequence (Q63447 whole entry): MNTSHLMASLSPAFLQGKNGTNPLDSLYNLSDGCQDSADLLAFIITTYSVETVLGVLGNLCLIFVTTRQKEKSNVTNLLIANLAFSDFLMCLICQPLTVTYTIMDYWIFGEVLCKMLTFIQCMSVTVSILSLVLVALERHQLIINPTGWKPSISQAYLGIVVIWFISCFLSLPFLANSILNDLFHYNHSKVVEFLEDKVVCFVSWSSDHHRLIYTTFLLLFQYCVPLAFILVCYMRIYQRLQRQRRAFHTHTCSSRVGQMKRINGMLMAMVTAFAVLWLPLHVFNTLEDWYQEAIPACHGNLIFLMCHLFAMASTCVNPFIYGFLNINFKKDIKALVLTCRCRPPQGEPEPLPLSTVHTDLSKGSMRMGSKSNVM

CC[C@H](C)[C@H](NC(=O)[C@H](Cc1ccc(O)cc1)NC(=O)[C@H](CCCNC(=N)N)NC(=O)[C@H](CCCNC(=N)N)NC(=O)[C@H](CC(C)C)NC(=O)[C@H](CC(=O)O)NC(=O)[C@H](C)NC(=O)[C@H](C)NC(=O)[C@H](Cc1ccc(O)cc1)NC(=O)[C@H](CCC(N)=O)NC(=O)[C@H](C)NC(=O)[C@H](CCSC)NC(=O)[C@H](CCC(N)=O)NC(=O)[C@H](CCC(=O)O)NC(=O)[C@@H]1CCCN1C(=O)[C@@H](NC(=O)[C@H](C)NC(=O)[C@H](CC(N)=O)NC(=O)[C@H](CC(=O)O)NC(=O)CNC(=O)[C@@H]1CCCN1C(=O)[C@H](Cc1ccc(O)cc1)NC(=O)[C@@H](NC(=O)[C@@H]1CCCN1C(=O)[C@H](CCC(=O)O)NC(=O)[C@H](CC(C)C)NC(=O)[C@@H]1CCCN1C(=O)[C@H](C)N)C(C)C)[C@@H](C)O)C(=O)N[C@@H](CC(N)=O)C(=O)N[C@@H](CCSC)C(=O)N[C@@H](CC(C)C)C(=O)N[C@H](C(=O)N[C@@H](CCCNC(=N)N)C(=O)N1CCC[C@H]1C(=O)N[C@@H](CCCNC(=N)N)C(=O)N[C@@H](Cc1ccc(O)cc1)C(N)=O)[C@@H](C)O [PP, Pancreatic polypeptide]
insulin secretion at 16.7 mM glucose (BRIN‐BD11 beta‐cells [1]; peptide 10^−6 M): slight inhibitory effect
insulin secretion at 16.7 mM glucose (BRIN‐BD11 beta‐cells [1]; peptides 10^−12 to 10^−7 M): no discernible impact
BRIN‐BD11 cell proliferation (BRIN‐BD11 beta‐cells [2]): significantly (p < 0.001) enhanced
glucose homeostasis (blood glucose) (C57BL/6 mice): Neither native PP, nor related PP analogs, exerted any effect
circulatory half‐life [3]: less than 7 min
dependence of beta‐cell proliferative benefit on NPY4R signaling (NPY4R): dependent on NPY4R signaling
